Measured values as given in patent US9681664B2, “Macrocyclic picolinamides as fungicides” (Dow Agrosciences LLC, priority 2012, dated 2017).
Where two headings read alike, the source gives them in different places.

Assays:
[1] = tested on: Mycosphaerella graminicola; Anamorph: Septoria tritici; assay: Leaf blotch of wheat (SEPTTR) disease control on wheat seedlings; assay type: in vivo; details: Zymoseptoria tritici, High volume application, 100 ppm
Procedure, shortened: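 Wheat seedlings (Yuma, first leaf emerged) sprayed to run-off with compound in acetone/water with 110 ppm Triton X-100, or track-sprayed as EC with 0.1% Trycol 5941. Septoria tritici spores inoculated before or after treatment. Dew chambers, then 20 °C greenhouse. Percent disease control derived from severity (0–100%) relative to untreated plants.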

[2] = tested on: Puccinia triticina; Synonym: Puccinia recondite f. sp. tritici; assay: Wheat brown rust (PUCCRT) disease control on wheat seedlings; assay type: in vivo; details: Puccinia triticina, High volume application, 100 ppm
Procedure, shortened: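 Acetone solutions diluted in nine volumes of water with 110 ppm Triton X-100 sprayed to run-off on first-leaf Yuma wheat seedlings (track spray: EC with 0.1% Trycol 5941). Puccinia triticina spores inoculated before or after treatment; overnight dark dew at 22° C., 100% RH, then greenhouse at 24° C. for disease development.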

Phakopsora pachyrhizi = assay: Asian soybean rust (PHAKPA) disease control; assay type: in vivo; details: topical, high volume
Description: Technical grades of materials were dissolved in acetone, which were then mixed with nine volumes of water containing 0.011% Tween 20. The fungicide solutions were applied onto soybean seedlings using an automated booth sprayer to run-off. All sprayed plants were allowed to air dry prior to further handling.
Soybean plants (variety Williams 82) were grown in soil-less Metro mix, with one plant per pot. Two weeks old seedlings were used for testing. Plants were inoculated either 3 days prior to or 1 day after fungicide treatments. Plants were incubated for 24 h in a dark dew room at 22° C. and 100% RH then transferred to a growth room at 23° C. for disease to develop. Disease severity was assessed on the sprayed leaves.

[3] = 24 h, 1 Day Protectant, read-out: SEPTTR 1DP disease control
[4] = 72 h, 3 Day Curative, read-out: SEPTTR 3DC disease control
[5] = 24 h, 1 Day Protectant, read-out: PUCCRT 1DP disease control
[6] = 72 h, 3 Day Curative, read-out: PUCCRT 3DC disease control
[7] = 24 h, 1 Day Protectant, read-out: Disease Control PHAKPA 1DP

Structure (SMILES)	pest or weed control at 100 ppm [1, 3] [%]	pest or weed control at 100 ppm [1, 4] [%]	pest or weed control at 100 ppm [2, 5] [%]	pest or weed control at 100 ppm [2, 6] [%]	melting point [°C]	pest or weed control at 25 ppm (Phakopsora pachyrhizi; [7]) [%]	pest or weed control at 25 ppm (Phakopsora pachyrhizi; 72 h, 3 Day Curative, read-out: Disease Control PHAKPA 3DC) [%]
COc1ccnc(C(=O)N[C@H]2CCC[C@H](OCC(C)C)[C@@H](OCC(C)C)[C@H](C)OC2=O)c1O [F21]	0 to 80	0 to 80	80 to 100	80 to 100	94 to 95		
CCCO[C@H]1[C@H](C)OC(=O)[C@@H](NC(=O)c2nccc(OC)c2O)CCC[C@@H]1OCC(C)C [F212]	0 to 80	0 to 80	80 to 100	80 to 100	109 to 111		
COc1ccnc(C(=O)N[C@H]2CCC[C@H](Oc3ccc(F)cc3)[C@@H](Oc3ccc(F)cc3)[C@H](C)OC2=O)c1O [F50]	80 to 100	0 to 80	80 to 100	80 to 100	89 to 91		
COc1ccnc(C(=O)N[C@H]2CCC[C@H](Oc3ccccc3)[C@@H](OC3CCCC3)[C@H](C)OC2=O)c1OCOC(C)=O [F80]	80 to 100	80 to 100	80 to 100	80 to 100	148 to 149	80 to 100	80 to 100
COc1ccnc(C(=O)N[C@H]2CCC[C@H](OCC(C)C)[C@@H](OCCCC(F)(F)F)[C@H](C)OC2=O)c1O [F41]	0 to 80	80 to 100	80 to 100	80 to 100	108 to 114		
COc1ccnc(C(=O)N[C@H]2CCC[C@H](Oc3ccc(F)cc3)[C@@H](OCC(C)C)[C@H](C)OC2=O)c1OCOC(C)=O [F63]	80 to 100	80 to 100	80 to 100	80 to 100	139 to 141		
COc1ccnc(C(=O)N[C@H]2CCC[C@H](OC3CCCC3)[C@@H](OCC(C)C)[C@H](C)OC2=O)c1O [F119]	80 to 100	80 to 100	80 to 100	80 to 100	99 to 100		
COc1ccnc(C(=O)N[C@H]2CCC[C@H](OC3CCCC3)[C@@H](OC3CCCC3)[C@H](C)OC2=O)c1O [F73]	0 to 80	80 to 100	80 to 100	80 to 100	61 to 63		
COc1ccnc(C(=O)N[C@H]2CCC[C@H](OCC(C)C)[C@@H](OC(=O)C3CC3)[C@H](C)OC2=O)c1O [F213]	0 to 80	0 to 80	80 to 100	80 to 100	63 to 66		
COc1ccnc(C(=O)N[C@H]2CCC[C@H](OC3CCCC3)[C@@H](OCCCC(F)(F)F)[C@H](C)OC2=O)c1O [F120]	80 to 100	80 to 100	80 to 100	80 to 100	43 to 48		
COc1ccc(O[C@H]2CCC[C@H](NC(=O)c3nccc(OC)c3OCOC(C)=O)C(=O)O[C@@H](C)[C@@H]2OCC(C)C)cc1 [F68]	80 to 100	80 to 100	80 to 100	80 to 100	118 to 120	80 to 100	
